Data on 8 molecules can be found in PMC4491657, “Design and Synthesis of Novel N-Arylsulfonyl-3-(2-yl-ethanone)-6-methylindole Derivatives as Inhibitors of HIV-1 Replication” (Pharmaceuticals, 2015).

The nature of data set [1]: MTT-based cytotoxicity assay. To be noted: human, C8166 cells, concentration that causes 50% reduction in total C8166 cell number, means of two separate experiments, read-out: CC50 (50% cytotoxic concentration). The method, then:
(§1) Cell line (C8166) and the laboratory-derived virus (HIV-1 IIIB) were obtained from the MRC, AIDS Reagent Project, London, UK. C8166 was maintained in RPMI-1640 supplemented with 10% heat-inactivated new born calf serum (Gibco, USA). The cells used in all experiments were in log-phase growth. The 50% HIV-1 IIIB tissue culture infectious dose (TCID50) in C8166 cells was determined and calculated by the Reed and Muench method. Virus stocks were stored in small aliquots at −70 °C [11].
Cellular toxicity of compounds 4a–f and 6 on C8166 cells was assessed by the MTT method as described previously. Briefly, cells were seeded on 96-well microtiter plate in the absence or presence of various concentrations of compounds in triplicate and incubated at 37 °C in a humid atmosphere of 5% CO2 for 3 days. The supernatants were discarded and MTT reagent (5 mg/mL in PBS) was added to each wells, then incubated for 4 h, 100 μL of 50% DMF-20% SDS was added. After the formazan was dissolved completely, the plates were read on a Bio-TekElx800 ELISA reader at 595/630 nm. The cytotoxic concentration that caused the reduction of viable C8166 cells by 50% (CC50) was determined from dose-response curve.
Background: Tetrazolium dyes change colour on reduction, which living cells bring about.

In data set [2] the test system is HIV-1 IIIB. The experiment in a line: Syncytia assay (anti-HIV-1 activity in acutely infected C8166 cells). Format: cell-based. To be noted: Human immunodeficiency virus 1, 72 h; concentration that reduces syncytia formation by 50%; C8166 cells infected with HIV-1 IIIB, M.O.I 0.06, 3 days; means of two separate experiments; read-out: EC50 (50% effective concentration). The method, then:
as §1
In the presence of 100 μL of various concentrations of compounds, C8166 cells (4 × 10^5/mL) were infected with virus HIV-1IIIB at a multiplicity of infection (M.O.I) of 0.06. The final volume per well was 200 μL. Control assays were performed without the testing compounds in HIV-1IIIB infected and uninfected cultures. After 3 days of culture, the cytopathic effect (CPE) was measured by counting the number of syncytia. Percentage inhibition of syncytia formation was calculated and 50% effective concentration (EC50) was calculated. AZT (Sigma, USA) was used as a positive control. Therapeutic index (TI) = CC50/EC50 [13].

The melting point is the temperature, or range, at which the solid turns liquid.

Structures are written as SMILES.

As to `CCc1ccc(S(=O)(=O)n2cc(C(=O)CN3CCOCC3)c3ccc(C)cc32)cc1` [Compound 4f, N-(p-Ethyl)phenylsulfonyl-3-[2-morpholinoethanone]-6-methylindole], the CC50 at 3 days in data set [1] was more than 469 µM. Further, the EC50 in data set [2] was 9.42 µM.
In the same order, the values of `Cc1cn([C@H]2C[C@H](N=[N+]=[N-])[C@@H](CO)O2)c(=O)[nH]c1=O` [AZT, 3'-azido-3'-deoxythymidine, reference compound] are 4260 µM and 0.0121 µM.
`CCc1ccc(S(=O)(=O)n2cc(C(=O)CSc3nnc(-c4ccccc4)o3)c3ccc(C)cc32)cc1` [Compound 6, N-(p-Ethyl)phenylsulfonyl-3-[2-(5-phenyl-1,3,4-oxadiazole-2-yl-thio)ethanone]-6-methylindole] registered a melting point of 122 to 124 °C. In data set [1], the CC50 at 3 days came to 309 µM. Further, the EC50 in data set [2] stood at 4.62 µM.
For the molecule `Cc1ccc2c(C(=O)CN3CCCCC3)cn(S(=O)(=O)c3ccccc3)c2c1` [Compound 4a, N-Phenylsulfonyl-3-[2-piperidinylethanone]-6-methylindole], the melting point lay within 132 to 134 °C. Besides, the CC50 at 3 days in data set [1] was more than 504 µM. The EC50 in data set [2] came to 32.8 µM.
In the same order, the values of `Cc1ccc2c(C(=O)CN3CCOCC3)cn(S(=O)(=O)c3ccccc3)c2c1` [Compound 4b, N-Phenylsulfonyl-3-[2-morpholinoethanone]-6-methylindole] are 174 to 176 °C, more than 502 µM and 56.6 µM.
The molecule `Cc1ccc2c(C(=O)CN3CCCC3)cn(S(=O)(=O)c3ccccc3)c2c1` [Compound 4c, N-Phenylsulfonyl-3-[2-pyrrolidinoethanone]-6-methylindole] displayed a melting point of 124 to 126 °C. Further, the CC50 at 3 days in data set [1] came to 226 µM. Moreover, in data set [2], the EC50 was determined as 106 µM.
Regarding `CCCCNCC(=O)c1cn(S(=O)(=O)c2ccccc2)c2cc(C)ccc12` [Compound 4e, N-Phenylsulfonyl-3-[2-butylaminoethanone]-6-methylindole], the CC50 at 3 days in data set [1] is 43.8 µM. Also, the EC50 in data set [2] was 30 µM.
Consider `Cc1ccc2c(C(=O)CN(C(C)C)C(C)C)cn(S(=O)(=O)c3ccccc3)c2c1` [Compound 4d, N-Phenylsulfonyl-3-[2-diisopropylaminoethanone]-6-methylindole], for which the CC50 at 3 days in data set [1] stood at 220 µM. In data set [2], the EC50 amounted to 17.9 µM.
